The experiment deals with T1, human PAR4 (Homo sapiens, UniProt Q96RI0).
T1 construct: expressed in transfected cells; host or cells: HEK293 PAR4 Clone 1.2A (BMS Arctic ID 383940)
T1 sequence (Q96RI0 18-385): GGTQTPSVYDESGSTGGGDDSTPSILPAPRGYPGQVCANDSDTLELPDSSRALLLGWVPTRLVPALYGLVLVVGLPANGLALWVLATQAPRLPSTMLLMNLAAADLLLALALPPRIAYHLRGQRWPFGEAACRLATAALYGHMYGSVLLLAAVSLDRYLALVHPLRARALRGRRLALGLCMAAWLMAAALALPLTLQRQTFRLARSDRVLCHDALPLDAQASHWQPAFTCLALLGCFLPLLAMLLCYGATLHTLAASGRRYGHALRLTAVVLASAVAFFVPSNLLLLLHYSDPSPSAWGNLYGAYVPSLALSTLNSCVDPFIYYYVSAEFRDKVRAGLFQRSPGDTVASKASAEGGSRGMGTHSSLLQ
Nature of the experiment: PAR4 FLIPR assay: antagonism of agonist-peptide-induced calcium mobilization in PAR4-expressing HEK293 cells. The format is cell-based. The settings on record: H-Ala-Phe(4-F)-[…]NH2-induced intracellular calcium mobilization, 11-point curves.

For orientation: IC50 means the concentration that gives 50% inhibition. For `COc1cnc2c(-c3nc4cc(F)c(OC[C@@H](C)OC(=O)Nc5cnc(C)nc5)nc4s3)cc(C)cc2n1` [Example 678, (R)-1-((6-fluoro-2-(2-methoxy-7-methylquinoxalin-5-yl)thiazolo[5,4-b]pyridin-5-yl)oxy)propan-2-yl (2-methylpyrimidin-5-yl)carbamate], the IC50 is 1 nM.
As for `COc1cnc2c(-c3nc4c(Cl)c(F)c(OCCOC(=O)NCc5ccncc5)cc4s3)cc(C)cc2n1` [Example 369, 2-((4-chloro-5-fluoro-2-(2-methoxy-7-methylquinoxalin-5-yl)benzo[d]thiazol-6-yl)oxy)ethyl (pyridin-4-ylmethyl)carbamate], the figure is 13 nM; as for `COc1cnc2c(-c3nc4cc(F)c(O[C@@H](C)[C@@H](C)OC(=O)Nc5cnc(OCCO)nc5)nc4s3)cc(C)cc2n1` [Example 721, (2R,3S)-3-((6-fluoro-2-(2-methoxy-7-methylquinoxalin-5-yl)thiazolo[5,4-b]pyridin-5-yl)oxy)butan-2-yl (2-(2-hydroxyethoxy)pyrimidin-5-yl)carbamate], 2.6 nM.
As for `Cc1cc(-c2cn3ccccc3n2)c2ncc(OC(F)F)nc2c1` [Example 45, 2-(difluoromethoxy)-5-(imidazo[1,2-a]pyridin-2-yl)-7-methylquinoxaline], the IC50 came to 99 nM.
As for `COC(C)c1cnc2c(-c3cc4ccccc4o3)cc(C)cc2n1` (centres unmarked) [Example 184, 5-(benzofuran-2-yl)-2-(1-methoxyethyl)-7-methylquinoxaline], the figure is 2300 nM.
As for `COc1cnc2c(-c3nc4cc(F)c(OC[C@@H](C)OC(=O)Nc5ccnc(CCO)c5)nc4s3)cc(C)cc2n1` [Example 696, (R)-1-((6-fluoro-2-(2-methoxy-7-methylquinoxalin-5-yl)thiazolo[5,4-b]pyridin-5-yl)oxy) propan-2-yl (2-(2-hydroxyethyl)pyridin-4-yl)carbamate], the figure is 2.6 nM; as for `COCc1cnc2c(-c3nc4c(Cl)c(C)c(OCCO)cc4s3)cc(C)cc2n1` [Example 327, 2-((4-chloro-2-(2-(methoxymethyl)-7-methylquinoxalin-5-yl)-5-methylbenzo[d]thiazol-6-yl)oxy)ethanol], 5.2 nM; as for `CCOc1cnc2c(-c3nc4cc(F)c(O[C@@H](C)[C@@H](C)OC(=O)Nc5cnc(OCCO)nc5)cc4s3)cc(Cl)cc2c1` [Example 513, (2R,3S)-3-((2-(6-chloro-3-ethoxyquinolin-8-yl)-5-fluorobenzo[d]thiazol-6-yl)oxy)butan-2-yl (2-(2-hydroxyethoxy)pyrimidin-5-yl)carbamate], 1.1 nM.
Regarding `COc1cnc2c(-c3nc4cc(F)c(O[C@@H](C)[C@@H](C)OC(=O)Nc5ccc(C(=O)NCCC(C)(C)O)nc5)cc4s3)cc(C)cc2n1` [Example 464, (2R,3S)-3-((5-fluoro-2-(2-methoxy-7-methylquinoxalin-5-yl)benzo[d]thiazol-6-yl)oxy)butan-2-yl (6-((3-hydroxy-3-methylbutyl)carbamoyl)pyridin-3-yl)carbamate], the half-inhibitory concentration (IC50) was determined as 1.5 nM.
As for `COc1cnc2c(-c3nc4cc(F)c(OC[C@@H](C)OC(=O)Nc5ccc6[nH]ccc6c5)cc4s3)cc(C)cc2n1` [Example 355, (R)-1-((5-fluoro-2-(2-methoxy-7-methylquinoxalin-5-yl)benzo[d]thiazol-6-yl)oxy)propan-2-yl 1H-indol-5-ylcarbamate], the figure is 17 nM.
As to `COCc1cnc2c(-c3nc4c(C5CC5)c(F)c(OC)cc4s3)cc(C)cc2n1` [Example 314, 4-cyclopropyl-5-fluoro-6-methoxy-2-(2-(methoxymethyl)-7-methylquinoxalin-5-yl)benzo[d]thiazole], the half-maximal inhibitory concentration (IC50) was 10 nM.
As for `COc1cnc2c(-c3nc4c(C)cc(OC)nc4s3)cc(C)cc2n1` [Example 179, 5-methoxy-2-(2-methoxy-7-methylquinoxalin-5-yl)-7-methylthiazolo[5,4-b]pyridine], the figure is 18 nM; as for `COc1cnc2c(-c3nc4cc(F)c(OC[C@@H](C)OC(=O)Nc5ccnnc5)cc4s3)cc(C)cc2n1` [Example 353, (R)-1-((5-fluoro-2-(2-methoxy-7-methylquinoxalin-5-yl)benzo[d]thiazol-6-yl)oxy)propan-2-yl pyridazin-4-ylcarbamate], 22 nM; as for `COc1cnc2c(-c3nc4cc(F)c(O[C@@H](C)[C@@H](C)OC(=O)Nc5ccc(C(=O)NCCC(C)(C)O)nc5)cc4s3)cc(C)cc2n1` [Example 446, (2R,3S)-3-((5-fluoro-2-(2-methoxy-7-methylquinoxalin-5-yl)benzo[d]thiazol-6-yl)oxy)butan-2-yl (6-((3-hydroxy-3-methylbutyl)carbamoyl)pyridin-3-yl)carbamate], 2.3 nM.
As for `CCOc1cnc2c(-c3nc4cc(F)c(O[C@@H](C)[C@@H](C)OC(=O)Nc5cnc(C)nc5)cc4s3)cc(C)cc2c1` [Example 660, (2R,3S)-3-((2-(3-ethoxy-6-methylquinolin-8-yl)-5-fluorobenzo[d]thiazol-6-yl)oxy)butan-2-yl (2-methylpyrimidin-5-yl)carbamate], the figure is 2 nM; as for `COCc1cnc2c(-c3nc4c(F)cc(F)cc4s3)cc(C)cc2n1` [Example 257, 4,6-difluoro-2-(2-(methoxymethyl)-7-methylquinoxalin-5-yl)benzo[d]thiazole], 2.1 nM; as for `COc1cnc2c(-c3nc4cc(F)c(O[C@@H](C)[C@@H](C)OC(=O)Nc5ccc(CCO)nc5)cc4s3)cc(C)cc2n1` [Example 387, (2R,3S)-3-((5-fluoro-2-(2-methoxy-7-methylquinoxalin-5-yl)benzo[d]thiazol-6-yl)oxy)butan-2-yl (6-(2-hydroxyethyl)pyridin-3-yl)carbamate], 1.5 nM.
As for `Cc1cc(-c2nc3cccc(NC(=O)OC4CCOCC4)c3s2)c2ncc(OC(F)F)nc2c1` [Example 21, tetrahydro-2H-pyran-4-yl (2-(2-(difluoromethoxy)-7-methylquinoxalin-5-yl)benzo[d]thiazol-7-yl)carbamate], the figure is 3.3 nM; as for `CCOCc1cnc2c(-c3nc4c(C)cc(OC)cc4s3)cc(C)cc2n1` [Example 189, 2-(2-(ethoxymethyl)-7-methylquinoxalin-5-yl)-6-methoxy-4-methylbenzo[d]thiazole], 140 nM.
`COc1cnc2c(-c3nc4c(Cl)c(F)c(OCCOC(=O)Nc5cn[nH]c5)cc4s3)cc(C)cc2n1` [Example 364, 2-((4-chloro-5-fluoro-2-(2-methoxy-7-methylquinoxalin-5-yl)benzo[d]thiazol-6-yl)oxy)ethyl 1H-pyrazol-4-ylcarbamate]: the IC50 came to 19 nM.
As for `COCc1cnc2c(-c3nc4c(C(O)c5ccccc5)cc(OC)cc4s3)cc(C)cc2n1` (single isomer, unassigned) [Example 163, (6-methoxy-2-(2-(methoxymethyl)-7-methylquinoxalin-5-yl)benzo[d]thiazol-4-yl)(phenyl)methanol], the figure is 0.5 nM; as for `COc1cnc2c(-c3nc4cc(F)c(O[C@@H](C)[C@@H](C)OC(=O)Nc5ccc6[nH]c(=O)oc6c5)nc4s3)cc(C)cc2n1` [Example 708, (2R,3S)-3-((6-fluoro-2-(2-methoxy-7-methylquinoxalin-5-yl)thiazolo[5,4-b]pyridin-5-yl)oxy)butan-2-yl (2-oxo-2,3-dihydrobenzo[d]oxazol-6-yl)carbamate], 2.6 nM; as for `COc1cnc2c(-c3nc4c(C)cc(OCCOC(=O)Nc5ccc(-c6cccs6)nc5)nc4s3)cc(C)cc2n1` [Example 812, 2-((2-(2-methoxy-7-methylquinoxalin-5-yl)-7-methylthiazolo[5,4-b]pyridin-5-yl)oxy) ethyl (6-(thiophen-2-yl)pyridin-3-yl)carbamate], 7 nM.
Take `COc1cnc2c(-c3nc4cc(F)c(OC[C@@H](C)OC(=O)Nc5cccnc5)cc4s3)cc(C)cc2n1` [Example 347, (R)-1-((5-fluoro-2-(2-methoxy-7-methylquinoxalin-5-yl)benzo[d]thiazol-6-yl)oxy)propan-2-yl pyridin-3-ylcarbamate]: the IC50 was determined as 0.8 nM.
In the case of `COc1cnc2c(-c3nc4c(C(O)C(C)(C)C)c(F)c(OC)cc4s3)cc(C)cc2n1` (centres unmarked) [Example 632, 1-(5-fluoro-6-methoxy-2-(2-methoxy-7-methylquinoxalin-5-yl)benzo[d]thiazol-4-yl)-2,2-dimethylpropan-1-ol], the IC50 was found to be 10 nM.
As for `Cc1cc(-c2cc3ccccc3o2)c2ncc(OC(F)F)nc2c1` [Example 1, 5-(benzofuran-2-yl)-2-(difluoromethoxy)-7-methylquinoxaline], the figure is 29 nM; as for `COCc1cnc2c(-c3nc4c(C(O)C5CC5)cc(OC)cc4s3)cc(C)cc2n1` (centres unmarked) [Example 158, Cyclopropyl(6-methoxy-2-(2-(methoxymethyl)-7-methylquinoxalin-5-yl)benzo[d]thiazol-4-yl)methanol], 0.7 nM; as for `COc1cnc2c(-c3nc4cc(F)c(O[C@@H](C)[C@@H](C)OC(=O)Nc5ccnnc5)cc4s3)cc(C)cc2n1` [Example 413, (2R,3S)-3-((5-fluoro-2-(2-methoxy-7-methylquinoxalin-5-yl)benzo[d]thiazol-6-yl)oxy)butan-2-yl pyridazin-4-ylcarbamate], 3.4 nM.
Regarding `COc1cc(C(O)C2(C)CCCCC2)c2nc(-c3cc(C)cc4nc(OC)cnc34)sc2c1` (centres unmarked) [Example 676, (6-methoxy-2-(2-methoxy-7-methylquinoxalin-5-yl)benzo[d]thiazol-4-yl)(1-methylcyclohexyl)methanol], the 50% inhibitory concentration (IC50) stood at 3.2 nM.

For the origin of these results see patent publication US12060347B2 (BRISTOL-MYERS SQUIBB COMPANY, priority 2016, dated 2024).
